Measurements as given in patent publication US20120225862A1, “HETEROARYL BENZAMIDES, COMPOSITIONS AND METHODS OF USE” (AUCKLAND UNIVSERVICES LIMITED, priority 2009, published 2012).

Key:
RCC4/VHL = assay: XTT IC50 assay, selectivity RCC4 versus RCC4 with VHL-reintroduced; assay type: cell-based, human; conditions: selectivity ratio of XTT IC50 values, RCC4 vs RCC4/VHL
Method: (§1) RCC4 parental and RCC4 with VHL-reintroduced (RCC4/VHL), SN12C and SN12C-CSCG-VHL shRNA were maintained in DMEM supplemented with 10% FCS.
(§2) IC50 values for compounds were determined by XTT assay. For 2,3-bis[2-methoxy-4-nitro-5-sulfophenyl]-2H-tetrazolium-5-carboxanilide inner salt (XTT) assays, five thousand cells were plated in 96-well plates. The next day, vehicle or drug was added to each well and incubated for four days. Media was aspirated and phenol red-free medium with 0.3 mg/mL XTT and 2.65 ug/mL N-methyl dibenzopyrazine methyl sulfate was added. This was incubated at 37° C. for 1-2 hours and absorbance was read at 450 nm. IC50 values for each compound were calculated using linear interpolation.
(§3) For 2,3-bis[2-methoxy-4-nitro-5-sulfophenyl]-2H-tetrazolium-5-carboxanilide (XTT) assays, five thousand cells were plated in 96-well plates. The next day, vehicle (DMSO) or drug was added by serial dilution. Four days later, media were aspirated, XTT solution (0.3 mg/ml of XTT (Sigma), 2.65 mg/ml N-methyl dibenxopyrazine methyl sulfate (Simga) in phenol red-free media) was added, and the plates were incubated at 37° C. for 1-2 hours. Metabolism of XTT was quantified by measuring the absorbance at 450 nm. IC50s were calculated using linear interpolation. For clonogenic survival assays, three hundred cells were plated per 60 mm tissue culture dish. The cells were allowed to attach overnight and then treated with vehicle or drug for 14 days. Colonies were fixed and stained with crystal violet (0.1% crystal violet in 95% ethanol). All conditions were measured in triplicate and each experiment was done in duplicate or triplicate. To determine necrosis, cells were treated with drug for a given time point. Media and cells were collected, centrifugated, and resuspended in 0.4% trypan blue (Invitrogen). Live and dead cells were counted on a hematocytometer.

RCC4 = assay: XTT IC50 / viability assay, RCC4 cells; assay type: cell-based, human; conditions: Homo sapiens, RCC4, 96 h; XTT assay, four days
Method: as §1, §2, §3

## NCCOCCOCCOCCOCCOCCOCCCc1ccc(S(=O)(=O)NCc2ccc(C(=O)Nc3cccnc3)cc2)cc1 [Example 130, 4-[({[4-(21-Amino-4,7,10,13,16,19-hexaoxahenicos-1-yl)phenyl]sulfonyl}amino)methyl]-N-(3-pyridinyl)benzamide]
RCC4/VHL
  Ratio (RCC4:RCC/VHL): a (“a” reflects a ratio of RCC4/RCC-VHL+ ranging from 1 to 10)
RCC4
  IC50: 1 to 20 µM

## N#Cc1cccc(S(=O)(=O)NCc2ccc(C(=O)Nc3cccnc3)cc2)c1 [Example 24, 4-((3-Cyanophenylsulfonamido)methyl)-N-(pyridin-3-yl)benzamide]
RCC4/VHL
  Ratio (RCC4:RCC/VHL): a (“a” reflects a ratio of RCC4/RCC-VHL+ ranging from 1 to 10)
RCC4
  IC50: 1 to 20 µM

## O=C(Nc1cccnc1)c1ccc(CNS(=O)(=O)c2ccc(NCCCN3CCOCC3)cc2)cc1 [Example 131, 4-({[(4-{[3-(4-Morpholinyl)propyl]amino}phenyl)sulfonyl]amino}methyl)-N-(3-pyridinyl)benzamide]
RCC4/VHL
  Ratio (RCC4:RCC/VHL): b (“b” reflects from 10 to 100)
RCC4
  IC50: < 1 µM

## O=C(Nc1cccnc1)c1ccc(CNS(=O)(=O)c2ccc(I)cc2)cc1 [Example 94, 4-((4-Iodophenylsulfonamido)methyl)-N-(pyridin-3-yl)benzamide]
RCC4/VHL
  Ratio (RCC4:RCC/VHL): a (“a” reflects a ratio of RCC4/RCC-VHL+ ranging from 1 to 10)
RCC4
  IC50: 1 to 20 µM

## Cc1c(C)c(C)c(S(=O)(=O)NCc2ccc(C(=O)Nc3cccnc3)cc2)c(C)c1C [Example 63, 4-((2,3,4,5,6-Pentamethylphenylsulfonamido)methyl)-N-(pyridin-3-yl)benzamide]
RCC4/VHL
  Ratio (RCC4:RCC/VHL): b (“b” reflects from 10 to 100)
RCC4
  IC50: < 1 µM

## O=C(Nc1cccnc1)c1ccc(CNS(=O)(=O)c2ccc(C(F)(F)F)cc2)cc1 [Example 49, N-(Pyridin-3-yl)-4-((4-(trifluoromethyl)phenylsulfonamido)methyl)benzamide]
RCC4/VHL
  Ratio (RCC4:RCC/VHL): a (“a” reflects a ratio of RCC4/RCC-VHL+ ranging from 1 to 10)
RCC4
  IC50: 1 to 20 µM

## CCCCOc1ccc(S(=O)(=O)NCc2ccc(C(=O)Nc3cccnc3)cc2)cc1 [Example 34, 4-((4-Butoxyphenylsulfonamido)methyl)-N-(pyridin-3-yl)benzamide]
RCC4/VHL
  Ratio (RCC4:RCC/VHL): b (“b” reflects from 10 to 100)
RCC4
  IC50: < 1 µM

## CCN(Cc1ccc(C(=O)Nc2cccnc2)cc1)S(=O)(=O)c1ccc(C(C)(C)C)cc1 [Example 139, 4-{[[(4-tert-Butylphenyl)sulfonyl](ethyl)amino]methyl}-N-(3-pyridinyl)benzamide]
RCC4/VHL
  Ratio (RCC4:RCC/VHL): a (“a” reflects a ratio of RCC4/RCC-VHL+ ranging from 1 to 10)
RCC4
  IC50: > 20 µM

## O=C(Nc1cccnc1)c1ccc(CNS(=O)(=O)c2ccc(CN3CCOCC3)cc2)cc1 [Example 83, 4-[({[4-(4-Morpholinylmethyl)phenyl]sulfonyl}amino)methyl]-N-(3-pyridinyl)benzamide]
RCC4/VHL
  Ratio (RCC4:RCC/VHL): c (“c” reflects a ratio of >100)
RCC4
  IC50: < 1 µM

## CC(C)(C)c1ccc(CNCc2ccc(C(=O)Nc3cccnc3)cc2)cc1 [Compound B, reference compound]
RCC4/VHL
  Ratio (RCC4:RCC/VHL): a (“a” reflects a ratio of RCC4/RCC-VHL+ ranging from 1 to 10)
RCC4
  IC50: 1 to 20 µM

## O=C(Nc1cccnc1)c1ccc(CNS(=O)(=O)c2ccc(CN3CCCC3)cc2)cc1 [Example 80, 4-[({[4-(1-Pyrrolidinylmethyl)phenyl]sulfonyl}amino)methyl]-N-(3-pyridinyl)-benzamide]
RCC4/VHL
  Ratio (RCC4:RCC/VHL): c (“c” reflects a ratio of >100)
RCC4
  IC50: < 1 µM

## O=C(Nc1cccnc1)c1ccc(CNS(=O)(=O)c2ccccc2Cl)cc1 [Example 12, 4-((2-Chlorophenylsulfonamido)methyl)-N-(pyridin-3-yl)benzamide]
RCC4/VHL
  Ratio (RCC4:RCC/VHL): a (“a” reflects a ratio of RCC4/RCC-VHL+ ranging from 1 to 10)
RCC4
  IC50: 1 to 20 µM

## CCCc1ccc(S(=O)(=O)NCc2ccc(C(=O)Nc3cccnc3)cc2)cc1 [Example 37, 4-((4-Propylphenylsulfonamido)methyl)-N-(pyridin-3-yl)benzamide]
RCC4/VHL
  Ratio (RCC4:RCC/VHL): b (“b” reflects from 10 to 100)
RCC4
  IC50: < 1 µM

## Cc1ccc(S(=O)(=O)NCc2ccc(C(=O)Nc3cccnc3)cc2)cc1C [Example 65, 4-((3,4-Dimethylphenylsulfonamido)methyl)-N-(pyridin-3-yl)benzamide]
RCC4/VHL
  Ratio (RCC4:RCC/VHL): c (“c” reflects a ratio of >100)
RCC4
  IC50: < 1 µM

## Cc1ccc(S(=O)(=O)NCc2ccc(C(=O)Nc3cccnc3)cc2)cc1 [Example 36, 4-((4-Methylphenylsulfonamido)methyl)-N-(pyridin-3-yl)benzamide]
RCC4/VHL
  Ratio (RCC4:RCC/VHL): b (“b” reflects from 10 to 100)
RCC4
  IC50: 1 to 20 µM

## CN1CCN(c2cccc(S(=O)(=O)NCc3ccc(C(=O)Nc4cccnc4)cc3)c2)CC1 [Example 132, 4-[({[3-(4-Methyl-1-piperazinyl)phenyl]sulfonyl}amino)methyl]-N-(3-pyridinyl)benzamide]
RCC4/VHL
  Ratio (RCC4:RCC/VHL): b (“b” reflects from 10 to 100)
RCC4
  IC50: < 1 µM

## O=C(Nc1cccnc1)c1ccc(CNS(=O)(=O)c2ccc(Br)cc2)cc1 [Example 45, 4-((4-Bromophenylsulfonamido)methyl)-N-(pyridin-3-yl)benzamide]
RCC4/VHL
  Ratio (RCC4:RCC/VHL): b (“b” reflects from 10 to 100)
RCC4
  IC50: 1 to 20 µM

## O=C(Nc1cccnc1)c1ccc(CNS(=O)(=O)c2ccc(Cc3ccccc3)cc2)cc1 [Example 135, 4-({[(4-Benzylphenyl)sulfonyl]amino}methyl)-N-(3-pyridinyl)benzamide]
RCC4/VHL
  Ratio (RCC4:RCC/VHL): b (“b” reflects from 10 to 100)
RCC4
  IC50: < 1 µM

## CN(C)CC#Cc1ccc(S(=O)(=O)NCc2ccc(C(=O)Nc3cccnc3)cc2)cc1 [Example 137, 4-{[({4-[3-(Dimethylamino)-1-propynyl]phenyl}sulfonyl)amino]methyl}-N-(3-pyridinyl)benzamide]
RCC4/VHL
  Ratio (RCC4:RCC/VHL): b (“b” reflects from 10 to 100)
RCC4
  IC50: < 1 µM

## CN(C)C1Cc2ccc(S(=O)(=O)NCc3ccc(C(=O)Nc4cccnc4)cc3)cc2C1 (stereo not shown) [Example 75, 4-((2-(Dimethylamino)-2,3-dihydro-1H-indene-5-sulfonamido)methyl)-N-(pyridin-3-yl)benzamide]
RCC4/VHL
  Ratio (RCC4:RCC/VHL): c (“c” reflects a ratio of >100)
RCC4
  IC50: < 1 µM

## Cc1nc(-c2cccc(S(=O)(=O)NCc3ccc(C(=O)Nc4cccnc4)cc3)c2)no1 [Example 30, 4-[({[3-(5-Methyl-1,2,4-oxadiazol-3-yl)phenyl]sulfonyl}amino)methyl]-N-(3-pyridinyl)benzamide]
RCC4/VHL
  Ratio (RCC4:RCC/VHL): c (“c” reflects a ratio of >100)
RCC4
  IC50: < 1 µM

## Cn1ccc(-c2cccc(S(=O)(=O)NCc3ccc(C(=O)Nc4cccnc4)cc3)c2)n1 [Example 28, 4-[({[3-(1-Methyl-1H-pyrazol-3-yl)phenyl]sulfonyl}amino)methyl]-N-(3-pyridinyl)benzamide]
RCC4/VHL
  Ratio (RCC4:RCC/VHL): c (“c” reflects a ratio of >100)
RCC4
  IC50: < 1 µM

## O=C(Nc1cccnc1)c1ccc(CNS(=O)(=O)c2ccc(OC(F)(F)F)cc2)cc1 [Example 46, N-(Pyridin-3-yl)-4-((4-(trifluoromethoxy)phenylsulfonamido)methyl)benzamide]
RCC4/VHL
  Ratio (RCC4:RCC/VHL): b (“b” reflects from 10 to 100)
RCC4
  IC50: 1 to 20 µM

## O=C(Nc1cccnc1)c1ccc(CNS(=O)(=O)c2cccc(F)c2)cc1 [Example 20, 4-((3-Fluorophenylsulfonamido)methyl)-N-(pyridin-3-yl)benzamide]
RCC4/VHL
  Ratio (RCC4:RCC/VHL): b (“b” reflects from 10 to 100)
RCC4
  IC50: < 1 µM

## O=C(Nc1cccnc1)c1ccc(CNS(=O)(=O)c2ccc(CN3CCCCCC3)cc2)cc1 [Example 82, 4-[({[4-(1-Azepanylmethyl)phenyl]sulfonyl}amino)methyl]-N-(3-pyridinyl)benzamide]
RCC4/VHL
  Ratio (RCC4:RCC/VHL): c (“c” reflects a ratio of >100)
RCC4
  IC50: < 1 µM

## Nc1ccc(S(=O)(=O)NCc2ccc(C(=O)Nc3cccnc3)cc2)cc1 [Example 32, 4-((4-Aminophenylsulfonamido)methyl)-N-(pyridin-3-yl)benzamide]
RCC4/VHL
  Ratio (RCC4:RCC/VHL): b (“b” reflects from 10 to 100)
RCC4
  IC50: 1 to 20 µM

## CN1CCN(Cc2ccc(S(=O)(=O)NCc3ccc(C(=O)Nc4cccnc4)cc3)cc2)CC1 [Example 85, 4-{[({4-[(4-Methyl-1-piperazinyl)methyl]phenyl}sulfonyl)amino]methyl}-N-(3-pyridinyl)benzamide]
RCC4/VHL
  Ratio (RCC4:RCC/VHL): c (“c” reflects a ratio of >100)
RCC4
  IC50: < 1 µM

## CN(C)c1cccc2c(S(=O)(=O)NCc3ccc(C(=O)Nc4cccnc4)cc3)cccc12 [Example 73, 4-((5-(Dimethylamino)naphthalene-1-sulfonamido)methyl)-N-(pyridin-3-yl)benzamide]
RCC4/VHL
  Ratio (RCC4:RCC/VHL): c (“c” reflects a ratio of >100)
RCC4
  IC50: < 1 µM

## Nc1cccc(S(=O)(=O)NCc2ccc(C(=O)Nc3cccnc3)cc2)c1 [Example 17, 4-((3-Aminophenylsulfonamido)methyl)-N-(pyridin-3-yl)benzamide]
RCC4/VHL
  Ratio (RCC4:RCC/VHL): b (“b” reflects from 10 to 100)
RCC4
  IC50: 1 to 20 µM
